± gives the standard deviation of the averaged measurements.
Experiments:
Details in all cases: 72 h
[1] = tested on: MV4-11
Method in brief: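 In 384-well plates holding acoustically pre-printed compounds at five tenfold doses from 1 to 10,000 nM, in duplicate, fifteen myeloid leukaemia cell lines were grown in RPMI 1640 for 72 h at 37 °C with 5% CO2. Luminescent ATP viability was scaled between vehicle and a positive control at 10 µM. The IC50 was then taken from log-logistic dose–response fits with four parameters.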

[2] = tested on: HL-60; assay: cell viability (% survival relative to DMSO control); higher = less cytotoxic
Method in brief: (§1)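 In 384-well plates, the full library was rescreened in duplicate on HL-60 cells in RPMI 1640 with 10% FBS, at 1–10,000 nM in five tenfold concentrations, for 72 h at 37 °C, 5% CO2. Each run also held DMSO or 100 nM of one of three metabolic inhibitors. Viability was measured by CellTiter-Glo and normalised to DMSO wells and to wells with proteasome inhibitor, present at 10 μM. Any area under the curve comes from four-parameter log-logistic fitting with drc and PharmacoGx.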

[3] = tested on: BV-173; assay: cell viability (% survival relative to DMSO control, bortezomib = 0%); higher = less cytotoxic
Method in brief: (§2)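 Reported values are percent survival from duplicate wells, averaged. Fifteen myeloid leukaemia cell lines were treated in 384-well plates with compounds at 1, 10, 100, 1000 or 10000 nM for 72 h at 37 °C in 5% CO2. Signals from CellTiter-Glo luminescence were scaled with vehicle as 100% and a 10 µM positive control as 0%.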

[4] = tested on: HEL; assay: as above
Method in brief: as §2

[5] = tested on: HL-60; assay: as above
Method in brief: as §2

[6] = tested on: K-562; assay: as above
Method in brief: as §2

[7] = tested on: KCL-22; assay: as above
Method in brief: as §2

[8] = tested on: KG-1; assay: as above
Method in brief: as §2

[9] = tested on: KU-812; assay: as above
Method in brief: as §2

[10] = tested on: LAMA-84; assay: as above
Method in brief: as §2

[11] = tested on: ML-2; assay: as above
Method in brief: as §2

[12] = tested on: MOLM-13; assay: as above
Method in brief: as §2

[13] = tested on: MV4-11; assay: as above
Method in brief: as §2

[14] = tested on: Mono-Mac-6; assay: as above
Method in brief: as §2

[15] = tested on: NOMO-1; assay: as above
Method in brief: as §2

[16] = tested on: SHI-1; assay: as above
Method in brief: as §2

[17] = tested on: THP-1; assay: as above
Method in brief: as §2

[18] = tested on: HL-60; assay: area under dose-response curve (viability, 1 nM-10 uM) (fraction (0-1)); higher = more sensitive
Method in brief: as §1

CC(=O)N[C@@H](CS)C(=O)O [Acetylcysteine]
Details	IC50 (cell viability) [µM]
[1]	> 10

cell viability [%], [2]
Details	0.001 µM	0.01 µM	0.1 µM	1 µM	10 µM
co-treatment: AZD3965 100 nM	99.1 ± 8	99.8 ± 1.2	105 ± 6.2	102 ± 6.2	91.6 ± 1
co-treatment: DMSO vehicle	94.2 ± 10	101.13 ± 0.024	104 ± 5.7	96.1 ± 8.7	93.7 ± 4.5
co-treatment: GSK2194069 100 nM	97.8 ± 8.2	103 ± 1.7	106 ± 5.4	101 ± 4.8	91.4 ± 4.3
co-treatment: pictilisib 100 nM	103 ± 9.8	101.2 ± 0.78	106 ± 1.6	101 ± 7.9	86.3 ± 9.3

Details	area under dose-response curve, co-treatment: AZD3965 100 nM	area under dose-response curve, co-treatment: DMSO vehicle	area under dose-response curve, co-treatment: GSK2194069 100 nM	area under dose-response curve, co-treatment: pictilisib 100 nM	cell viability, 1 nM [%]	cell viability, 10 nM [%]	cell viability, 100 nM [%]	cell viability, 1000 nM [%]	cell viability, 10000 nM [%]
[3]	–	–	–	–	109	96.7	92.2	98.9	95.2
[4]	–	–	–	–	110	90.4	90	113	104
[5]	–	–	–	–	107	93.1	93.5	125	122
[6]	–	–	–	–	106	97.9	77.2	96.2	103
[7]	–	–	–	–	117	92.8	102	93.3	97.6
[8]	–	–	–	–	113	98.3	101	88.9	101
[9]	–	–	–	–	102	93.4	87.9	97.1	97
[10]	–	–	–	–	96.2	96.8	88	101	101
[11]	–	–	–	–	104	91.3	97.3	89.2	102
[12]	–	–	–	–	107	107	81.8	110	105
[13]	–	–	–	–	112	102	102	111	112
[14]	–	–	–	–	114	96.3	97	100	105
[15]	–	–	–	–	105	99	98.8	93.5	103
[16]	–	–	–	–	100	96.5	105	97.2	110
[17]	–	–	–	–	103	98.8	101	100	102
[18]	< 0.0301	< 0.0301	< 0.0301	< 0.0301	–	–	–	–	–

From the supplement of paper PMC8671470
